Starred links: 1 amine or outer side, 2 acyl side, 3 side chain; linkers in the order of their positions; H or OH if unused. Non-standard residues stand in square brackets, D forms with d. Residues, ends and D or L forms follow the SMILES beside them. Groups on a side chain read outwards from the residue. *: point of attachment. Phe(4-CH2NH2) = NCc1ccc(C[C@H](N)C(=O)O)cc1; C19 diacid = O=C(O)CCCCCCCCCCCCCCCCCC(=O)*; C18 diacid = O=C(O)CCCCCCCCCCCCCCCCC(=O)*; C16 diacid = O=C(O)CCCCCCCCCCCCCCC(=O)*; γGlu = O=C(O)[C@H](CCC(=O)[*:2])N[*:1]; Met(O2) = CS(=O)(=O)CC[C@H](N)C(=O)O; AEEA = NCCOCCOCC(=O)O; Aib = CC(C)(N)C(=O)O
Columns and labels:
[1] = target: T1, human GCGR (Homo sapiens, UniProt P47871); assay: cAMP activity assay, cells expressing human GCGR; format: cell-based; settings: for EC50: cAMP production, cells expressing human GCGR, assay buffer with or without 20% human serum (not stated which), read-out: GCGR EC50 human; for hGCGR/hGLP1R (hTone): ratio of human GCGR EC50 to human GLP1R EC50
T1 construct: expressed in transfected cells; kept under Blasticidin and Hygromycin selection
Method in brief: (§1)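 Peptides as 10-point titrations from DMSO tested on cells expressing human GLP1R or GCGR. cAMP measured by luminescent kit after overnight room-temperature incubation in the dark. EC50 from four-parameter logistic fit; native GLP-1 and glucagon as controls.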

[2] = target: T2, human GLP1R (Homo sapiens, UniProt P43220); assay: cAMP activity assay, cells expressing human GLP1R; format: cell-based; settings: cAMP production, assay buffer with or without 20% human serum (not stated which)
T2 construct: expressed in transfected cells; kept under Blasticidin and Hygromycin selection
Method in brief: as §1

T2 sequence (P43220 24-463): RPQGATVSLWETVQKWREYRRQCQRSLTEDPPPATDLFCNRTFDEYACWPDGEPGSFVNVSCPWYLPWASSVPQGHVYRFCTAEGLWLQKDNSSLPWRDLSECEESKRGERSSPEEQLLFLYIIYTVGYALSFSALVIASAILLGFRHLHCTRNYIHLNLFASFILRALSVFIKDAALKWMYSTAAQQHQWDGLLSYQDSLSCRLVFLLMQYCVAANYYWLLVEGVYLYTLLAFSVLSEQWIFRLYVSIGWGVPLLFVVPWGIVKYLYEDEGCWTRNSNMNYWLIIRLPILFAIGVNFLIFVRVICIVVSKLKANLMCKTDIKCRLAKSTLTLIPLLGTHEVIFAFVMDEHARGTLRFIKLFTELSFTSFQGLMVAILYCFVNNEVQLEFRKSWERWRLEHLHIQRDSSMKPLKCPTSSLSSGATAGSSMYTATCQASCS
T1 sequence (P47871 26-477): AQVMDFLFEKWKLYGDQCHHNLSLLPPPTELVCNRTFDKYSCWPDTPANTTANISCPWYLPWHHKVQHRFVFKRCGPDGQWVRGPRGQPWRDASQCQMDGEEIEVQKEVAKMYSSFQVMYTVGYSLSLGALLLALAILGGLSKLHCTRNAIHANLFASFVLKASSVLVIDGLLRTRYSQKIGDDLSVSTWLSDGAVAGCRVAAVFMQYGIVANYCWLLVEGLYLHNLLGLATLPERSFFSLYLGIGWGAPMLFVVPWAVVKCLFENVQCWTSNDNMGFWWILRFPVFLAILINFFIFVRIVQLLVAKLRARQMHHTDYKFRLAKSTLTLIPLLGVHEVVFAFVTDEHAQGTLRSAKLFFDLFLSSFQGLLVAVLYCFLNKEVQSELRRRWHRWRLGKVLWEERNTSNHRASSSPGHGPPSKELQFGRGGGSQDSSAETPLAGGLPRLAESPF

Compound	EC50 [1]	hGCGR/hGLP1R (hTone) [1]	EC50 [2]
CC(C)C[C@H](NC(=O)[C@H](Cc1ccc(O)cc1)NC(=O)[C@H](CCCCN)NC(=O)[C@H](CO)NC(=O)[C@H](Cc1ccc(O)cc1)NC(=O)[C@H](CC(=O)O)NC(=O)[C@H](CO)NC(=O)[C@@H](NC(=O)[C@H](Cc1ccccc1)NC(=O)[C@@H](NC(=O)CNC(=O)[C@H](CCC(N)=O)NC(=O)[C@@H](CO)NC(=O)[C@@H](N)Cc1c[nH]cn1)[C@@H](C)O)[C@@H](C)O)C(=O)N[C@@H](CC(=O)O)C(=O)N[C@@H](C)C(=O)N[C@@H](CCCNC(=N)N)C(=O)N[C@@H](C)C(=O)N[C@@H](C)C(=O)N[C@@H](CCCCNC(=O)COCCOCCNC(=O)COCCOCCNC(=O)CC[C@H](NC(=O)CCCCCCCCCCCCCCC(=O)O)C(=O)O)C(=O)N[C@@H](CC(=O)O)C(=O)N[C@@H](Cc1ccccc1)C(=O)N[C@H](C(=O)N[C@@H](CCC(N)=O)C(=O)N[C@@H](Cc1c[nH]c2ccccc12)C(=O)N[C@@H](CC(C)C)C(=O)N[C@@H](CC(C)C)C(=O)N[C@@H](CC(=O)O)C(=O)N[C@H](C(N)=O)[C@@H](C)O)C(C)C [compound 2] (H-H[dS]QGTFTSDYSKYLDARAAK([AEEA-AEEA-γGlu-C16 diacid])DFVQWLLDT-NH2; N-terminus assumed)	30 pM	0.11	274 pM
CC(C)C[C@H](NC(=O)[C@H](CC(C)C)NC(=O)[C@H](Cc1c[nH]c2ccccc12)NC(=O)[C@H](CCC(N)=O)NC(=O)[C@@H](NC(=O)[C@H](Cc1ccccc1)NC(=O)[C@H](CCCCNC(=O)COCCOCCNC(=O)COCCOCCNC(=O)CC[C@H](NC(=O)CCCCCCCCCCCCCCC(=O)O)C(=O)O)NC(=O)[C@H](CCC(N)=O)NC(=O)[C@H](C)NC(=O)[C@H](C)NC(=O)[C@H](CCCNC(=N)N)NC(=O)C(C)(C)NC(=O)[C@H](CC(=O)O)NC(=O)[C@H](CC(C)C)NC(=O)[C@H](Cc1ccc(O)cc1)NC(=O)[C@H](CCCCN)NC(=O)[C@H](CO)NC(=O)[C@H](Cc1ccc(O)cc1)NC(=O)[C@H](CC(=O)O)NC(=O)[C@H](CO)NC(=O)[C@@H](NC(=O)[C@H](Cc1ccccc1)NC(=O)[C@@H](NC(=O)CNC(=O)[C@H](CCC(N)=O)NC(=O)[C@@H](CO)NC(=O)[C@@H](N)Cc1c[nH]cn1)[C@@H](C)O)[C@@H](C)O)C(C)C)C(=O)N[C@@H](C)C(=O)N[C@H](C(=O)N[C@@H](CCCCNC(=O)CC[C@H](N)C(=O)O)C(N)=O)[C@@H](C)O [compound 1] (H-H[dS]QGTFTSDYSKYLD[Aib]RAAQK([AEEA-AEEA-γGlu-C16 diacid])FVQWLLATK(γGlu)-NH2)	160 pM	0.09	1890 pM
CC(C)C[C@H](NC(=O)[C@H](Cc1ccc(O)cc1)NC(=O)[C@H](CCCCN)NC(=O)[C@H](CO)NC(=O)[C@H](CCCCNC(=O)COCCOCCNC(=O)COCCOCCNC(=O)CC[C@H](NC(=O)CCCCCCCCCCCCCCCCC(=O)O)C(=O)O)NC(=O)[C@H](CC(=O)O)NC(=O)[C@H](CO)NC(=O)[C@@H](NC(=O)[C@H](Cc1ccccc1)NC(=O)[C@@H](NC(=O)CNC(=O)[C@H](CCC(N)=O)NC(=O)[C@@H](CO)NC(=O)[C@@H](N)Cc1c[nH]cn1)[C@@H](C)O)[C@@H](C)O)C(=O)N[C@@H](CC(=O)O)C(=O)N[C@@H](C)C(=O)N[C@@H](CCCNC(=N)N)C(=O)N[C@@H](C)C(=O)N[C@@H](C)C(=O)N[C@@H](CCC(N)=O)C(=O)N[C@@H](CC(=O)O)C(=O)N[C@@H](Cc1ccccc1)C(=O)N[C@H](C(=O)N[C@@H](CCC(N)=O)C(=O)N[C@@H](Cc1c[nH]c2ccccc12)C(=O)N[C@@H](CC(C)C)C(=O)N[C@@H](CC(C)C)C(=O)N[C@@H](CC(=O)O)C(=O)N[C@H](C(N)=O)[C@@H](C)O)C(C)C [compound 6] (H-H[dS]QGTFTSDK([AEEA-AEEA-γGlu-C18 diacid])SKYLDARAAQDFVQWLLDT-NH2)	1700 pM	1.24	1370 pM
CC(C)C[C@H](NC(=O)[C@H](Cc1ccc(O)cc1)NC(=O)[C@H](CCCCN)NC(=O)[C@H](CO)NC(=O)[C@H](Cc1ccc(O)cc1)NC(=O)[C@H](CC(=O)O)NC(=O)[C@H](CO)NC(=O)[C@@H](NC(=O)[C@H](Cc1ccccc1)NC(=O)[C@@H](NC(=O)CNC(=O)[C@H](CCC(N)=O)NC(=O)C(C)(C)NC(=O)[C@@H](N)Cc1c[nH]cn1)[C@@H](C)O)[C@@H](C)O)C(=O)N[C@@H](CC(=O)O)C(=O)N[C@@H](C)C(=O)N[C@@H](CCCNC(=N)N)C(=O)N[C@@H](C)C(=O)N[C@@H](C)C(=O)N[C@@H](CCCCNC(=O)COCCOCCNC(=O)COCCOCCNC(=O)CC[C@H](NC(=O)CCCCCCCCCCCCCCCCCC(=O)O)C(=O)O)C(=O)N[C@@H](CC(=O)O)C(=O)N[C@@H](Cc1ccccc1)C(=O)N[C@H](C(=O)N[C@@H](CCC(N)=O)C(=O)N[C@@H](Cc1c[nH]c2ccccc12)C(=O)N[C@@H](CC(C)C)C(=O)N[C@@H](CCS(C)(=O)=O)C(=O)N[C@@H](CC(=O)O)C(=O)N[C@H](C(N)=O)[C@@H](C)O)C(C)C [compound 45] (H-H[Aib]QGTFTSDYSKYLDARAAK([AEEA-AEEA-γGlu-C19 diacid])DFVQWL[Met(O2)]DT-NH2)	160 pM	1.30	120 pM
CC(C)C[C@H](NC(=O)[C@H](Cc1ccc(O)cc1)NC(=O)[C@H](CCCCN)NC(=O)[C@H](CO)NC(=O)[C@H](Cc1ccc(O)cc1)NC(=O)[C@H](CC(=O)O)NC(=O)[C@H](CO)NC(=O)[C@@H](NC(=O)[C@H](Cc1ccccc1)NC(=O)[C@@H](NC(=O)CNC(=O)[C@H](CCC(N)=O)NC(=O)C(C)(C)NC(=O)[C@@H](N)Cc1c[nH]cn1)[C@@H](C)O)[C@@H](C)O)C(=O)N[C@@H](CC(=O)O)C(=O)N[C@@H](CCC(=O)O)C(=O)N[C@@H](CCCNC(=N)N)C(=O)N[C@@H](C)C(=O)N[C@@H](C)C(=O)N[C@@H](CCC(N)=O)C(=O)N[C@@H](Cc1ccc(CNC(=O)COCCOCCNC(=O)COCCOCCNC(=O)CC[C@H](NC(=O)CCCCCCCCCCCCCCC(=O)O)C(=O)O)cc1)C(=O)N[C@@H](Cc1ccccc1)C(=O)N[C@H](C(=O)N[C@@H](CCC(N)=O)C(=O)N[C@@H](Cc1c[nH]c2ccccc12)C(=O)N[C@@H](CC(C)C)C(=O)N[C@@H](CC(C)C)C(=O)N[C@@H](CCCCN)C(=O)N[C@H](C(N)=O)[C@@H](C)O)C(C)C [compound 27] (H-H[Aib]QGTFTSDYSKYLDERAAQ[Phe(4-CH2NH2)]([AEEA-AEEA-γGlu-C16 diacid])FVQWLLKT-NH2)	440 pM	9.24	50 pM
CC(C)C[C@H](NC(=O)[C@H](Cc1ccc(O)cc1)NC(=O)[C@H](CCCCN)NC(=O)[C@H](CO)NC(=O)[C@H](Cc1ccc(O)cc1)NC(=O)[C@H](CC(=O)O)NC(=O)[C@H](CO)NC(=O)[C@@H](NC(=O)[C@H](Cc1ccccc1)NC(=O)[C@@H](NC(=O)CNC(=O)[C@H](CCC(N)=O)NC(=O)C(C)(C)NC(=O)[C@@H](N)Cc1c[nH]cn1)[C@@H](C)O)[C@@H](C)O)C(=O)N[C@@H](CC(=O)O)C(=O)N[C@@H](C)C(=O)N[C@@H](CCCNC(=N)N)C(=O)N[C@@H](C)C(=O)N[C@@H](C)C(=O)N[C@@H](CCCCNC(=O)COCCOCCNC(=O)COCCOCCNC(=O)CC[C@H](NC(=O)CCCCCCCCCCCCCCC(=O)O)C(=O)O)C(=O)N[C@@H](CC(=O)O)C(=O)N[C@@H](Cc1ccccc1)C(=O)N[C@H](C(=O)N[C@@H](CCC(N)=O)C(=O)N[C@@H](Cc1c[nH]c2ccccc12)C(=O)N[C@@H](CC(C)C)C(=O)N[C@@H](CC(C)C)C(=O)N[C@@H](CC(=O)O)C(=O)N[C@H](C(N)=O)[C@@H](C)O)C(C)C [compound 17] (H-H[Aib]QGTFTSDYSKYLDARAAK([AEEA-AEEA-γGlu-C16 diacid])DFVQWLLDT-NH2)	140 pM	1.44	100 pM

Further lines, results first:

EC50 [1]	hGCGR/hGLP1R (hTone) [1]	EC50 [2]	Compound
790 pM	2.93	270 pM	CC(C)C[C@H](NC(=O)[C@H](Cc1ccc(O)cc1)NC(=O)[C@H](CCCCN)NC(=O)[C@H](CO)NC(=O)[C@H](Cc1ccc(O)cc1)NC(=O)[C@H](CC(=O)O)NC(=O)[C@H](CO)NC(=O)[C@@H](NC(=O)[C@H](Cc1ccccc1)NC(=O)[C@@H](NC(=O)CNC(=O)[C@H](CCC(N)=O)NC(=O)C(C)(C)NC(=O)[C@@H](N)Cc1c[nH]cn1)[C@@H](C)O)[C@@H](C)O)C(=O)N[C@@H](CC(=O)O)C(=O)N[C@@H](C)C(=O)N[C@@H](CCCNC(=N)N)C(=O)N[C@@H](C)C(=O)N[C@@H](C)C(=O)N[C@@H](CCCCNC(=O)COCCOCCNC(=O)COCCOCCNC(=O)CC[C@H](NC(=O)CCCCCCCCCCCCCCCCC(=O)O)C(=O)O)C(=O)N[C@@H](CC(=O)O)C(=O)N[C@@H](Cc1ccccc1)C(=O)N[C@H](C(=O)N[C@@H](CCC(N)=O)C(=O)N[C@@H](Cc1c[nH]c2ccccc12)C(=O)N[C@@H](CC(C)C)C(=O)N[C@@H](CCS(C)(=O)=O)C(=O)N[C@@H](CC(=O)O)C(=O)N[C@H](C(N)=O)[C@@H](C)O)C(C)C [compound 29] (H-H[Aib]QGTFTSDYSKYLDARAAK([AEEA-AEEA-γGlu-C18 diacid])DFVQWL[Met(O2)]DT-NH2; N-terminus assumed)
100 pM	1.66	60 pM	CC(C)C[C@H](NC(=O)[C@H](Cc1ccc(O)cc1)NC(=O)[C@H](CCCCN)NC(=O)[C@H](CO)NC(=O)[C@H](Cc1ccc(O)cc1)NC(=O)[C@H](CC(=O)O)NC(=O)[C@H](CO)NC(=O)[C@@H](NC(=O)[C@H](Cc1ccccc1)NC(=O)[C@@H](NC(=O)CNC(=O)[C@H](CCC(N)=O)NC(=O)C(C)(C)NC(=O)[C@@H](N)Cc1c[nH]cn1)[C@@H](C)O)[C@@H](C)O)C(=O)N[C@@H](CC(=O)O)C(=O)N[C@@H](C)C(=O)N[C@@H](CCCNC(=N)N)C(=O)N[C@@H](C)C(=O)N[C@@H](C)C(=O)N[C@@H](CCC(N)=O)C(=O)N[C@@H](CCCCNC(=O)COCCOCCNC(=O)COCCOCCNC(=O)CC[C@H](NC(=O)CCCCCCCCCCCCCCCCC(=O)O)C(=O)O)C(=O)N[C@@H](Cc1ccccc1)C(=O)N[C@H](C(=O)N[C@@H](CCC(N)=O)C(=O)N[C@@H](Cc1c[nH]c2ccccc12)C(=O)N[C@@H](CC(C)C)C(=O)N[C@@H](CCS(C)(=O)=O)C(=O)N[C@@H](CC(=O)O)C(=O)N[C@H](C(N)=O)[C@@H](C)O)C(C)C [compound 30] (H-H[Aib]QGTFTSDYSKYLDARAAQK([AEEA-AEEA-γGlu-C18 diacid])FVQWL[Met(O2)]DT-NH2)

Source: patent US11492385B2, “Long-acting co-agonists of the glucagon and GLP-1 receptors” (Merck Sharp & Dohme Corp., priority 2015, dated 2022)
